According to ChEMBL document CHEMBL1146187, “Synthesis, molecular modeling studies, and selective inhibitory activity against monoamine oxidase of N,N'-bis[2-oxo-2H-benzopyran]-3-carboxamides” (Bioorg Med Chem Lett, 2006):

How the values were obtained:
[1] = molecular target: T1, Amine oxidase [flavin-containing] B (Bos taurus, UniProt P56560); assay: Inhibition of bovine brain mitochondrial MAOB
T1 sequence (P56560 whole entry): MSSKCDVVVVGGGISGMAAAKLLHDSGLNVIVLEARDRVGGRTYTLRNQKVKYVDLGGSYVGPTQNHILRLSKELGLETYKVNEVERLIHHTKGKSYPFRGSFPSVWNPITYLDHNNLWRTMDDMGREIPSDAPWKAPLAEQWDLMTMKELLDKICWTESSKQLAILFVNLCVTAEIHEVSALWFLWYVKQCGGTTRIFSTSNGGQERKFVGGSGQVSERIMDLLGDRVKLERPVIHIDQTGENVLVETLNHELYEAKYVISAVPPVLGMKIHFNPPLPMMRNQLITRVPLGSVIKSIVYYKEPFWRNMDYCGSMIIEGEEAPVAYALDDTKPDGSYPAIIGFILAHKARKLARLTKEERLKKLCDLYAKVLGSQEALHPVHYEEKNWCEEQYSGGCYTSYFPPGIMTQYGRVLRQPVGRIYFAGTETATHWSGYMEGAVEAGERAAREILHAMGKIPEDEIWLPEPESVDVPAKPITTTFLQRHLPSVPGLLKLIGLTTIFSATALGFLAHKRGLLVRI

[2] = molecular target: T2, Amine oxidase [flavin-containing] A (Bos taurus, UniProt P21398); assay: Inhibition of bovine brain mitochondrial MAOA
T2 sequence (P21398 whole entry): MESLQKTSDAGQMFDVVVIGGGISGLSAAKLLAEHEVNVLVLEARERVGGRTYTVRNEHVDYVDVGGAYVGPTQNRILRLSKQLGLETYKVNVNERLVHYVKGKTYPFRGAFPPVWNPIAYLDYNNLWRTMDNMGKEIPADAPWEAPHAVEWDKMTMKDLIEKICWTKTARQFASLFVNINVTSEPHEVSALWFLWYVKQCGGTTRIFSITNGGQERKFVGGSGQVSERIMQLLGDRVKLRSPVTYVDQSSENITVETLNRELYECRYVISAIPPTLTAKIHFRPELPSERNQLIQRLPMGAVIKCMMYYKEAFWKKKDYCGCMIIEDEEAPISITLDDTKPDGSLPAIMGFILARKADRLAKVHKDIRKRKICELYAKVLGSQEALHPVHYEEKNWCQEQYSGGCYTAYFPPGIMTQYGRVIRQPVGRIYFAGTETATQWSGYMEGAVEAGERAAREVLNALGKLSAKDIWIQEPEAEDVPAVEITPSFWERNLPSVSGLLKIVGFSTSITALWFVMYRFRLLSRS

Ki [1] [nM] | Ki [2] [nM] | SMILES
1000 | 1 | O=C(NCCCCNC(=O)c1cc2ccccc2oc1=O)c1cc2ccccc2oc1=O
3020 | 16.2 | O=C(Nc1ccccc1NC(=O)c1cc2ccccc2oc1=O)c1cc2ccccc2oc1=O
6310 | 33.1 | O=C(NCCNC(=O)c1cc2ccccc2oc1=O)c1cc2ccccc2oc1=O
1820 | 3.98 | O=C(NCCCCCCNC(=O)c1cc2ccccc2oc1=O)c1cc2ccccc2oc1=O
1410 | 182 | O=C(N[C@H]1CCCC[C@@H]1NC(=O)c1cc2ccccc2oc1=O)c1cc2ccccc2oc1=O
1740 | 2400 | O=C(Nc1ccc(NC(=O)c2cc3ccccc3oc2=O)cc1)c1cc2ccccc2oc1=O
1410 | 170 | COc1ccc2cc(C(=O)NCCCCNC(=O)c3cc4ccc(OC)cc4oc3=O)c(=O)oc2c1
